The text below walks through data of ChEMBL document CHEMBL4043168, “The design and SAR of a novel series of 2-aminopyridine based LRRK2 inhibitors” (Bioorg Med Chem Lett, 2017).

SMILES strings stand for the structures.

Test [1] has as its target Leucine-rich repeat serine/threonine-protein kinase 2 (Homo sapiens, UniProt Q5S007, G2019S). Put plainly: Inhibition LRRK2 G2019S mutant (unknown origin) Ser935 phosphorylation in HEK293 cells. The test is classed as cell-based.
Test [2] concerns the target Mitogen-activated protein kinase 1 (Homo sapiens) (UniProt P28482). Put plainly: Inhibition of Erk2 ATP binding site (DLKPSNLLLNTTCDLK) in human PBMC at 1 uM.
For test [3], the target named is T1, Interleukin-1 receptor-associated kinase 4 (Homo sapiens) (UniProt Q9NWZ3).
T1 sequence (whole entry): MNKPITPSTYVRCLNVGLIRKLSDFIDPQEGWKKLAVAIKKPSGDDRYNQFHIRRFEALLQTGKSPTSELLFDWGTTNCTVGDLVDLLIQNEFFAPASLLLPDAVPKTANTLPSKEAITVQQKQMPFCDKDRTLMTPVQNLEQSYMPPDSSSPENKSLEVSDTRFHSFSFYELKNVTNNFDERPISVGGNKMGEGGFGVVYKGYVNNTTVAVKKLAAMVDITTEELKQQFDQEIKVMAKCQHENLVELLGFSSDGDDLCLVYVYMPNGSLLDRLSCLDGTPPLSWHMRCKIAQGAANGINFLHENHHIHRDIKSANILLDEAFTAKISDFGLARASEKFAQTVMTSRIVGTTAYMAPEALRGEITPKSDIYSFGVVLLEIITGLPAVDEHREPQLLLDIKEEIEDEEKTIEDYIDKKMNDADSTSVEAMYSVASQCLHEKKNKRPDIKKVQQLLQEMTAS
Put plainly: Inhibition of IRAK4 conserved Lys2 (DIKSANILLDEAFTAK) in human PBMC at 1 uM.

Test [4] addresses Dual specificity mitogen-activated protein kinase kinase 7 (Homo sapiens) (UniProt O14733). Put plainly: Inhibition of MAP2K7 conserved Lys2 (DVKPSNILLDER) in human PBMC at 1 uM.
The target in test [5] is Serine/threonine-protein kinase 25 (Homo sapiens) (UniProt O00506). The test is described as follows: Inhibition of YSK1 conserved Lys2 (DIKAANVLLSEQGDVK) in human PBMC at 1 uM.
Test [6] addresses Serine/threonine-protein kinase Nek1 (Homo sapiens) (UniProt Q96PY6). Put plainly: Inhibition of NEK1 conserved Lys2 (DIKSQNIFLTK) in human PBMC at 1 uM.
The species entered for another test is Homo sapiens. The test is described as follows: Inhibition of p70S6K conserved Lys2 (DLKPENIMLNHQGHVK) in human PBMC at 1 uM.
In test [7] the target is Serine/threonine-protein kinase SIK3 (Homo sapiens) (UniProt Q9Y2K2). The test is described as follows: Inhibition of QSK conserved Lys1 (VAIKIIDKTQLDEENLKK) in human PBMC at 1 uM.
Test [8] deals with T2, Serine/threonine-protein kinase ULK3 (Homo sapiens) (UniProt Q6PHR2).
T2 sequence (whole entry): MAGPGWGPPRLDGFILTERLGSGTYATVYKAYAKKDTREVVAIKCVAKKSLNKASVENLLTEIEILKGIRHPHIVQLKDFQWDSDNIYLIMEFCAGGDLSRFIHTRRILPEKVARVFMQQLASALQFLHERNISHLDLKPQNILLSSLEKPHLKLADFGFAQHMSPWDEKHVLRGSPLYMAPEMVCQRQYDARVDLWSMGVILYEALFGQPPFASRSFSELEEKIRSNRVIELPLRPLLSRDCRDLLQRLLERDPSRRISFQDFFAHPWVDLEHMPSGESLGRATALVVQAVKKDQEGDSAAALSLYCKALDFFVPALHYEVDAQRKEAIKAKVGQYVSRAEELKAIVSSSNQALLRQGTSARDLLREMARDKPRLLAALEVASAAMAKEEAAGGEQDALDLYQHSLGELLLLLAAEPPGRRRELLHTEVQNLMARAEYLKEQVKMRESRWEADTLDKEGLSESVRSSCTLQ
The test is described as follows: Inhibition of ULK3 conserved Lys2 (NISHLDLKPQNILLSSLEKPHLK) in human PBMC at 1 uM.

Test [9] deals with RAC-beta serine/threonine-protein kinase (Homo sapiens) (UniProt P31751). Put plainly: Inhibition of AKT2 labeling at ATP binding site (GTFGKVILVR) in human PBMC at 0.1 uM.
In test [10] the target is Serine/threonine-protein kinase Chk2 (Homo sapiens) (UniProt O96017). Put plainly: Inhibition of CHK2 labeling at conserved Lys2 (DLKPENVLLSSQEEDCLIK) in human PBMC at 0.1 uM.
In test [11] the target is Tyrosine-protein kinase Fer (Homo sapiens) (UniProt P16591). The test is described as follows: Inhibition of FER conserved Lys2 (QEDGGVYSSSGLKQIPIK) in human PBMC at 0.1 uM.
Test [12] addresses Serine/threonine-protein kinase/endoribonuclease IRE1 (Homo sapiens) (UniProt O75460). The test is described as follows: Inhibition of IRE1 conserved Lys2 (DLKPHNILISMPNAHGK) in human PBMC at 0.1 uM.
The target in test [13] is Mitogen-activated protein kinase kinase kinase kinase 5 (Homo sapiens) (UniProt Q9Y4K4). Put plainly: Inhibition of KHS1 conserved Lys1 (NVHTGELAAVKIIK) in human PBMC at 0.1 uM.
In test [14] the target is Serine/threonine-protein kinase 10 (Homo sapiens) (UniProt O94804). The test is described as follows: Inhibition of LOK conserved Lys2 (DLKAGNVLMTLEGDIR) in human PBMC at 0.1 uM.
Test [15] has as its target Serine/threonine-protein kinase Nek1 (Homo sapiens) (UniProt Q96PY6). Put plainly: Inhibition of NEK1 conserved Lys2 (DIKSQNIFLTK) in human PBMC at 0.1 uM.
Test [16] concerns the target PAN2-PAN3 deadenylation complex subunit PAN3 (Homo sapiens) (UniProt Q58A45). The test is described as follows: Inhibition of PAN3 Protein Kinase Domain (VMDPTKILITGK) in human PBMC at 0.1 uM.
For test [17], the target named is T2, Serine/threonine-protein kinase ULK3 (Homo sapiens). Put plainly: Inhibition of ULK3 conserved Lys1 (EVVAIKCVAK) in human PBMC at 0.1 uM.

Serine/threonine-protein kinase Nek1 (Homo sapiens), sequence (Q96PY6 whole entry, the tested form may be a part): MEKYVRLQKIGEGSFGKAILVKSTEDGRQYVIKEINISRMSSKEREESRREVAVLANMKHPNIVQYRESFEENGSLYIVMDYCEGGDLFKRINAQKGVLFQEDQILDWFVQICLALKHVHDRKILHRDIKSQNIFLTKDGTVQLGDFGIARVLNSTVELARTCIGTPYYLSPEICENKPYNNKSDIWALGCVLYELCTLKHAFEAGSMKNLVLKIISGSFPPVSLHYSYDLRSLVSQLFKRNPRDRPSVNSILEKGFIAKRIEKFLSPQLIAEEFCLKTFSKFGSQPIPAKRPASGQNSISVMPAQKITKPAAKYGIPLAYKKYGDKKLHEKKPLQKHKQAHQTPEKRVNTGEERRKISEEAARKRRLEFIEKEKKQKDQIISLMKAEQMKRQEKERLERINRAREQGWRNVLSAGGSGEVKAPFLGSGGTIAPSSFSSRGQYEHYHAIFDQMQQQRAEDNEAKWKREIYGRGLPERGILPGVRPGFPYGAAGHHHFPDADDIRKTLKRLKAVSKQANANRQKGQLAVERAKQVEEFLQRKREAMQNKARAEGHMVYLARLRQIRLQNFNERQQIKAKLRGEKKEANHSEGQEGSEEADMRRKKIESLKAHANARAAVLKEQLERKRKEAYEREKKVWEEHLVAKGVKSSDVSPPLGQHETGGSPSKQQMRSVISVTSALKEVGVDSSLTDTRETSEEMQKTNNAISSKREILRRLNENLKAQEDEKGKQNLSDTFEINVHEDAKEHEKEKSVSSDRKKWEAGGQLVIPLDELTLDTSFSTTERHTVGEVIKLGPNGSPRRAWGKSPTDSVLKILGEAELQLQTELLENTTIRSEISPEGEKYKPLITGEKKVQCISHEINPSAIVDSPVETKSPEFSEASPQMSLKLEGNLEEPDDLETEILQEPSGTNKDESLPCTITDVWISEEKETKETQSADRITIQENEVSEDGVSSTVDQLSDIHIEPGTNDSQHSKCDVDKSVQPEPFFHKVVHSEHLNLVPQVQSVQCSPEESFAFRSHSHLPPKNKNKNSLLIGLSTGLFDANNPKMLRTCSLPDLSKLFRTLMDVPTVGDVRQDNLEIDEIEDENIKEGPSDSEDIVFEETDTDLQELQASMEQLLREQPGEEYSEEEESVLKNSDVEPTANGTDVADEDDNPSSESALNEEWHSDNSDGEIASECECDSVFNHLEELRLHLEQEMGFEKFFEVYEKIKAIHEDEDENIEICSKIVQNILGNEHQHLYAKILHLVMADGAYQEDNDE
Serine/threonine-protein kinase 25 (Homo sapiens), sequence (O00506 whole entry, looked up): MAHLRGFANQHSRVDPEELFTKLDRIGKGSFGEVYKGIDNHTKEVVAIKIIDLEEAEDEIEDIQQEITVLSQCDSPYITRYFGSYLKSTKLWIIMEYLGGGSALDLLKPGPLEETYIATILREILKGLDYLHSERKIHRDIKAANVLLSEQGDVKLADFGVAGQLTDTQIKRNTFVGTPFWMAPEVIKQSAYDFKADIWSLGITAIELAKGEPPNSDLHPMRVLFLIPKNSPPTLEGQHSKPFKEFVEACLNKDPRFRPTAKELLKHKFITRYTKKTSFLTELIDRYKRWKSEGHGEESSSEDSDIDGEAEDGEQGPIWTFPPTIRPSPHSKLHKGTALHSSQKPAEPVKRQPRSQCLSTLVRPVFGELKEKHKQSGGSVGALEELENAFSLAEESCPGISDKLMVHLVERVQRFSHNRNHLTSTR
RAC-beta serine/threonine-protein kinase (Homo sapiens), sequence (P31751 whole entry): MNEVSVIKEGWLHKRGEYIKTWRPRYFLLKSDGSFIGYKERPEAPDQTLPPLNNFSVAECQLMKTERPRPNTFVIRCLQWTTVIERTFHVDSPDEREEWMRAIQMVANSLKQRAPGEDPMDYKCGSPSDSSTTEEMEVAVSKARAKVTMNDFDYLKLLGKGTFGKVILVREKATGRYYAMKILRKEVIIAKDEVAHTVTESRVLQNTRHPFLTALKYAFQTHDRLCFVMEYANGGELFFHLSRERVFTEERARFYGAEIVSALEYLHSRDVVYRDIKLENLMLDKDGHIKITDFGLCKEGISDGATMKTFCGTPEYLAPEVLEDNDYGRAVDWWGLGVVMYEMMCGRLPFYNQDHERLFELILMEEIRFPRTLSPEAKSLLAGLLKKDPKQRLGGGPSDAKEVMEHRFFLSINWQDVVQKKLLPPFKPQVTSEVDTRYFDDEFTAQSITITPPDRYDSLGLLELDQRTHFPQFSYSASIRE
Tyrosine-protein kinase Fer (Homo sapiens), sequence (P16591 whole entry, looked up): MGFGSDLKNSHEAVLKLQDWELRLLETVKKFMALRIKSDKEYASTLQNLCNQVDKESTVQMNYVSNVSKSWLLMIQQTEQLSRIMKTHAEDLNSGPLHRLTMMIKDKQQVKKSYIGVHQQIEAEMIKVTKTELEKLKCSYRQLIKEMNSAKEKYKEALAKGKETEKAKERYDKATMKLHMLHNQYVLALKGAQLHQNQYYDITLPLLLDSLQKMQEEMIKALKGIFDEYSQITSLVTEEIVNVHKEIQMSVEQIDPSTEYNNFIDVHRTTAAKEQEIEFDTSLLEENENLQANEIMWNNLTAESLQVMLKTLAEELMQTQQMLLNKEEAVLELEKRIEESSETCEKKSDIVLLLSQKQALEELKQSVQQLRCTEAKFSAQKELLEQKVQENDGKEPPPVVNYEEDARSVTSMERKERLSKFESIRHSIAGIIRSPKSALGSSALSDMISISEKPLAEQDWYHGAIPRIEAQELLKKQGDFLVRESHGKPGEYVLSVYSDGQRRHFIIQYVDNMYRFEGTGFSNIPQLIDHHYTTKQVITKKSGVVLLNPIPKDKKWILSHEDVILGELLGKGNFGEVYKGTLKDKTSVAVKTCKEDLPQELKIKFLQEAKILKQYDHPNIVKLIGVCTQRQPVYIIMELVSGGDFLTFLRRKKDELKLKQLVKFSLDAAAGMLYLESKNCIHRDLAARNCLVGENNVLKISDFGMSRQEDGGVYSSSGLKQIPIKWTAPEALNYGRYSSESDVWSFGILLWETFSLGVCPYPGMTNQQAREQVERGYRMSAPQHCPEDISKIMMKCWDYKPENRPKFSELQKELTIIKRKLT
Mitogen-activated protein kinase kinase kinase kinase 5 (Homo sapiens), sequence (Q9Y4K4 whole entry, looked up): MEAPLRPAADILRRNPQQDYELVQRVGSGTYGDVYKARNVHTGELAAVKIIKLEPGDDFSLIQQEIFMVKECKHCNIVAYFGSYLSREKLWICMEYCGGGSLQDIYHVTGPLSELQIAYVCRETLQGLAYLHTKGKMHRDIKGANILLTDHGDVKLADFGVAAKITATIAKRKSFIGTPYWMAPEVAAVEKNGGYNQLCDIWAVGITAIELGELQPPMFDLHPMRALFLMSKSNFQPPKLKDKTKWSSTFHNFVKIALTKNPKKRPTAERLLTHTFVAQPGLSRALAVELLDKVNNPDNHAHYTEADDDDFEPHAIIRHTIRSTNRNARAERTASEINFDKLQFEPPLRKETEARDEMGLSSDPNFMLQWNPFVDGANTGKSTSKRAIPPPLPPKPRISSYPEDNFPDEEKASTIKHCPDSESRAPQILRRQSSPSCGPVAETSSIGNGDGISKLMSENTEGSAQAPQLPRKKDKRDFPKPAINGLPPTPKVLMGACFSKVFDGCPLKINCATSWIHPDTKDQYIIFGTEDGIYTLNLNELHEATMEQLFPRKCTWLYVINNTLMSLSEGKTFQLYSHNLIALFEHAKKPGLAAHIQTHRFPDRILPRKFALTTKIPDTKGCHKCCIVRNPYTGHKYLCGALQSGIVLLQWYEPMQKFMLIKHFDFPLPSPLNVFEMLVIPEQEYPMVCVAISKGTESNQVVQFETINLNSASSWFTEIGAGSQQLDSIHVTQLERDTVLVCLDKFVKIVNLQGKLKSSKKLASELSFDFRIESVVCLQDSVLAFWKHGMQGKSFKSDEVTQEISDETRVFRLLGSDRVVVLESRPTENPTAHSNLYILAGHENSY
Serine/threonine-protein kinase/endoribonuclease IRE1 (Homo sapiens), sequence (O75460 19-977 limits assumed): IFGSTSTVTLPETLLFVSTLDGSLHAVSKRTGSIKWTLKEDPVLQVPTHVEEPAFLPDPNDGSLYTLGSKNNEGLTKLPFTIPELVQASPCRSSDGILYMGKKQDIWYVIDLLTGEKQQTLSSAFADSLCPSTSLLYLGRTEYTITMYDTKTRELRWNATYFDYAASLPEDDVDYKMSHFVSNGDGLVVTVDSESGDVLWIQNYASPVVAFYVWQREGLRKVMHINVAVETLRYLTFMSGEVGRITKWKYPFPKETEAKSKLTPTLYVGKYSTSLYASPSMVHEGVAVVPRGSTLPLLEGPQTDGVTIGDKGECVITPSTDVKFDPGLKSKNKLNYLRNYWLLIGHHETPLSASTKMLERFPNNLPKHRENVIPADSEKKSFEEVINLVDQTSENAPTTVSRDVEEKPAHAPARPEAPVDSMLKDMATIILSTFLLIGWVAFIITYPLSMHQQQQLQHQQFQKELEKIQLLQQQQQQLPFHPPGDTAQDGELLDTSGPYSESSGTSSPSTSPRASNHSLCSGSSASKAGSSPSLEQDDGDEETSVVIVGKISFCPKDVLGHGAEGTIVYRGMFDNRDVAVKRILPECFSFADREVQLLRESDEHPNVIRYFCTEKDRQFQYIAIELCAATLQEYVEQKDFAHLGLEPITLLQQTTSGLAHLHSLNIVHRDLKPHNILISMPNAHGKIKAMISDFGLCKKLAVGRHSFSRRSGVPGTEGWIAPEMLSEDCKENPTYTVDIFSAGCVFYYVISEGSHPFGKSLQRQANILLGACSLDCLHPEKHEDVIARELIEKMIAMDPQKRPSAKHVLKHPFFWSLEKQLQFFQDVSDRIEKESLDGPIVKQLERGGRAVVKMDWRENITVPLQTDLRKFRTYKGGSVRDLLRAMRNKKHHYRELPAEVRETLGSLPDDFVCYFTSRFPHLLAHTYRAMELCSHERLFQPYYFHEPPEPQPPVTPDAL

By IC50 is commonly meant the concentration at which inhibition is half-maximal. One may read the inhibition as the drop in the measured response relative to a control, in per cent. `CC(C)n1cc(-c2cc(-c3ccc(CN4CCOCC4)cc3)cnc2N)nn1` returned an IC50 in test [1] of 920 nM. For the same molecule, the inhibition in test [2] was 14.9%; in test [3], -2.5%; in test [4] it was 18.6%; in test [5], 9.9%; in test [6], 10%; in the test listed under Homo sapiens, 6.9%. Also, the inhibition is 4% in test [7]; 40.8% in test [8]; 17.1% in [9]; -4.8% in [10]; 8.5% in test [11]; 22.1% in test [12]. Also, the inhibition worked out at 14.7% in test [13]; 13.8% in test [14]; 5.5% in test [15]; 6.2% in test [16]; 20.3% in test [17].
